According to patent USRE43274E1, “Fluorinated photosensitizers related to chlorins and bacteriochlorins for photodynamic therapy” (Health Research, Inc., priority 2002, dated 2012):
One block for each compound: values may come before it.

Experiments:
[1] = Stability of Schiff base 17 / amine 18 (in vivo reflectance spectroscopy); settings: 17: in vivo, converted into acetyl analog 15, determined by in vivo reflectance spectroscopy
Description: For example, when the reaction was performed at elevated temperature, the N-fluorinated derivative 15 and the corresponding Schiff base 17 (obtained from the reaction of the 3-acetyl group with an amine) was isolated in almost equal ratio. However, at low temperature, 3-acetyl-N-substituted-bacteriopurpurinimide 15 was isolated as a major product. Bacteriochlorin 15 on reaction with sodium borohydride and then with HBr gas followed by a reaction with n-butyl alcohol produced the corresponding butyl ether derivative 16. […] However, reduction of 17 with sodium borohydride at room temperature produced stable amine 18. See Scheme 2.

RIF tumors = assay: In vivo photosensitizing (PDT) efficacy, tumor response in C3H mice transplanted with RIF tumors; design: species or system mouse
Description: In brief, C3H/HEJ mice were subjected to intradermal injection with 2×10^5 RIF cells in […] HBSS w/o Ca^+2 and magnesium, into the flank and allowed to grow until they were 4-5 mm in diameter. The day before tumors were treatment size, the mice were injected with variable doses of substantially pure photosensitizers (1.0 mg/kg, 0.4 mg/kg). […] The mice (6 mice/group in two groups) were checked daily, the tumors were measured using two orthogonal measurements L and W (perpendicular to L) and the volumes were calculated using the formula V=L×W^2/2 and recorded. Mice were considered cured if there was no palpable tumor at 90 days post-PDT treatment.
In the control group, six mice were exposed to light without injecting any photosensitizer.
The in vivo photosensitizing efficacy of bacteriochlorins 16 and 18 was determined in C3H mice (5 mice/group) at variable concentration up to 1.0 μmol/Kg.

[2] = Electronic absorption spectra in dichloromethane; assay type: physicochemical
Description: The electronic absorption spectra of PHOTOFRIN® (a porphyrin analog), HPPH (a chlorin bearing a five-membered isocyclic ring) and the purpurinimide 9 (a chlorin with an expanded, six-membered fused imide ring) were measured in dichloromethane at the same molar concentrations.

[3] = dose 1.0 μmol/Kg, day 90, C3H mice

- stability [1]: stable
Compound: CCC1c2cc3[nH]c4c(c5nc(cc6[nH]c(cc(n2)C1C)c(C(C)NCc1cc(C(F)(F)F)cc(C(F)(F)F)c1)c6C)[C@@H](C)[C@@H]5CCC(=O)OC)C(=O)N(Cc1cc(C(F)(F)F)cc(C(F)(F)F)c1)C(=O)c4c3C (stereo partly shown) [compound 18]
- mice tumor free (RIF tumors; [3]): 3/5
- tumor response (RIF tumors; [3]): 60%

- red-shift compared with PHOTOFRIN [2]: 30 nm
- ε (long wavelength absorption) ([2]; same molar concentrations): 45,000
- λmax (long wavelength absorption) ([2]; same molar concentrations): 660 nm
Compound: HPPH

Compound: purpurin-18-N-butyl-3-O-{1′-3″,5″-bis(trifluoromethyl)-benzyl ether}imide [compound 12]
- tumor response (RIF tumors; dose 0.4 mg/kg, light 706 nm, 135 J/cm2 at 24 hours post-injection, day 90, C3H/HeJ mice): 66%
